Results taken from US10335373B2, “Tamper resistant and dose-dumping resistant pharmaceutical dosage form” (GRÜNENTHAL GMBH, priority 2012, dated 2019).
Where a name gives a salt, the structure may show the parent alone.

With `C=CCN1CC[C@]23c4c5ccc(O)c4O[C@H]2C(=O)CC[C@@]3(O)[C@H]1C5` [naloxone hydrochloride] the “solubility in aqueous ethanol” value was “soluble”.
